Experimental data from patent publication US6462086B1, “Non-malignant disease treatment with Ras antagonists” (Ramot University Authority for Applied Research and …, priority 1999, dated 2002).
Entries after “also recorded” stand apart in the source; their conditions may differ.

Tests used:
[1] = test system: Ras; test: Ras expression in rat liver membranes (Western blot); assay type: in vivo
Protocol: The levels of Ras proteins in the rat livers were determined by immunoblotting assays using anti Ras antibodies (PanRasAb03, Santa Cruz) as detailed previously (4, 5). Briefly, the livers were homogenized (10% w/v) in 0.32M sucrose, 50 mM Tris HCl, pH 7.4 buffer containing 3mM EDTA, 1 mM EGTA, 5 μg/ml pepstatine, and 5 units/ml opsotonin. Nuclei and cell debris were removed by a 10-minute 1000×g spin. The plasma membrane-enriched fraction was obtained by a 20,000×g 30 minute spin. The resulting pellets were resuspended in homogenization buffer and samples containing 20 μg proteins were used for 12.5% SDS-PAGE (mini gels). The gels were subjected to immunoblotting assays as described previously (4). Each western blot was analyzed 3 times and the data in FIG. 17 represent the means±SD OD of these 3 blots. Ras was also determined by immunohistochemistry.

[2] = test system: cancers in animals mediated by oncogenic forms of Ras; conditions: cited from earlier work
[3] = test system: lymphocytes of EAE mice; test: In vitro mitogenic response (LPS, PLP 139-151 peptide) of lymph node lymphocytes of EAE mice; assay type: cell-based, mouse; conditions: 25 microM FTS; lymphocytes of EAE mice day 10
[4] = test system: Wistar rats; assay type: in vivo
Protocol: The FTS was dissolved in PBS and administered i.p. 3 times a week to rats according to their assigned groups. Four groups containing 6 rats each were treated as follows. One group received TAA 200 mg/kg i.p. twice a week and i.p. injections of PBS 3 days a week for 12 weeks (cirrhotic controls for the FTS-treated groups). A second group received TAA for 12 weeks and FTS 5 mg/kg, 3 times a week. […] The two control groups consisted of one that received PBS injections without TAA for 12 weeks (normal controls) and a group of 5 rats that received only FTS 5 mg/kg i.p. for 12 weeks to monitor the appearance of adverse effects.
In order to monitor the presence of adverse effects caused by the prolonged administration of FTS, a control group received the Ras antagonist for 12 weeks.

[5] = test system: Balb-C mice immunized with ApoH; test: Autoantibodies in Balb-C mice immunized with ApoH (induced APS model); assay type: in vivo, mouse; conditions: 9 per group
Protocol: Similar antibody assays were performed with the sera of Balb-C mice (9 per group) immunized with ApoH 10 μg in complete Freund's adjuvant with boosts given 2 and 6 weeks later in incomplete adjuvant.

[6] = test system: MRL/lpr mice; test: Autoantibody levels in MRL mice after 2 months FTS (Example 4, ELISA); assay type: in vivo, mouse; conditions: FTS 5 mg/kg 5 days per week
Protocol: Two models of the antiphospholipid syndrome were compared. The MRL/lpr mouse, which is a […] model due to a mutaion in the Fas gene, and Balb-C mice immunized with ApoH (β2 glucoprotein 1), which is an induced model. The effect of 2 months FTS (5 days per week, 5 mg/kg) treatment on autoantibody levels in MRL mice (age 10 weeks to 18 weeks) is presented in FIG. 14. The levels of autoantibodies were measured at age 18 weeks by routine ELISA assays (repeated measures ANOVA, p=0.016). […] Anti-ApoH and anti-dsDNA were the major autoantibody groups found. Significant, but lower levels of autoantibodies to phospholipids and single stranded DNA were found in the MRL/lpr mice compared to the MLR/++ controls.

[7] = test system: MRL/lpr and MRL/++ mice; assay type: in vivo; conditions: FTS 5 mg/Kg/day
Protocol: FTS was synthesized as previously described (13). FTS was stored in chloroform, which was evaporated under a stream of nitrogen immediately before use. The powder was dissolved in absolute ethanol and diluted to the desired concentration in sterile saline made basic with NaOH. 200 μl of carrier solution containing 100 μg of FTS (5 mg/kg) were injected intraperitoneally (i.p.) into each mouse. Control solution was prepared at the same time starting with a chloroform solution.
Mice were treated once a day, 3-5 times a week starting from 6 or 10 weeks of age until 18 weeks of age.
Proteinuria was normalized in FTS-treated MRL/lpr mice as were grip strength and certain aspects of behavior in the open field.

[8] = test system: MRL/lpr mice; test: Grip strength test (hang time) in MRL mice; assay type: in vivo, mouse
Protocol: The four groups of mice were examined weekly using the grip strength test. Muscle strength was measured by the number of seconds the mouse was able to hang suspended on a stationary bar. A neurologically normal mouse is able to remain suspended (hang time) for 30 seconds or longer (17).

[9] = test system: MRL/lpr mice; test: Proteinuria (dipstick) in MRL mice; assay type: in vivo, mouse; conditions: MRL/lpr mice treated 5 days a week from 6 weeks of age
Protocol: The presence of proteinuria was measured on freshly expressed urine samples at weekly intervals. The protein content was evaluated semiquantitatively using a commercial dipstick method (Macherey-Nagel, Germany). This colorimetric assay is specific for albumin, with approximate protein concentration as follows: 0, 30, 100 and 500 mg/dl (mg%).

[10] = test system: MRL/lpr mice; test: Disease activity in MRL/lpr mice (proteinuria, lymphadenopathy, grip strength; Example 4); assay type: in vivo, mouse
Protocol: One of the important measures of disease activity in MRL/lpr mice is proteinuria. Levels of proteinura were measured weekly by means of dip-sticks in MRL/lpr and Mrl/++ mice treated daily with FTS or with vehicle alone. Significant proteinuria developed in the MRL/lpr treated with vehicle compared to the MRL/++ groups. […] Other systemic measures of disease activity including lymphadenopathy and lymphocyte proliferation were normalized in FTS treated MRL/lpr mice (not shown).

[11] = Solubility in water and saline; assay type: physicochemical
Source text: In these formulations, the alkyl gallate, etc., is present in an amount of from 0.02% to about 0.05%, and the citric or phosphoric acid is present in an amount of about 0.01%. These formulations are suitable for parenteral administraiton.
In one embodiment of the present invention, both of these shortcomings are overcome by formulating the agent in cyclodextrin. This technology is the subject of U.S. Pat. Nos. 5,681,828 and 5,935,941. Cyclodextrins are a group of compounds consisting of, or derived from, the three parent cyclodextrins—alpha-, beta- and gamma-cyclodextrins. Alpha-, beta- and gamma-cyclodextrins are simple oligosaccharides consisting of six, seven or eight anhydroglucose residues, respectively, connected to macrocyles by alpha (1 to 4) glycosidic bonds. Each of the glucose residues of a cyclodextrin contains one primary (O6) and two secondary hydroxyls (O2 and O3) which can be substituted, for example, methylated. Many cyclodextrin preparations in practical use are mixtures of chemically individual derivatives in which only a part of hydroxy groups were substituted and which differ in number and position of these substituents.

[12] = MRL/lpr mice, age 10 to 18 weeks

Compound: CC(C)=CCC/C(C)=C/CC/C(C)=C/CSc1ccccc1C(=O)O [FTS, farnesyl thiosalicylic acid]
- decrease in Ras expression in the livers of TAA-treated rats ([1]; FTS treatment): 70%
- Ras levels in liver membranes, fold higher than control group ([1]; TAA+FTS treated group, TAA alone 17.6±2.0-fold): 4.9±1.2 fold
- reduction in cancer cell growth ([2]; cancers in animals, in some cases): greater than 90%
- body weight, specific organs size, blood count and chemistry ([2]; earlier studies in FTS-treated animals): no alteration
- doses that effectively inhibited tumor growth ([2]; previous animal studies): 3 to 10 mg/kg
- effect on normal cells ([2]; similar dosages as in cancer treatment): very little, if any, effect on normal cells
- suppression of the LPS mitogenic response [3]: 91%
- suppression of the PLP mitogenic response [3]: 62%
- mortality and adverse effects ([4]; FTS 5 mg/kg alone for 12 weeks): no mortality or major adverse effects
- survival after 12 weeks ([4]; TAA+FTS, n=6): none of the rats died
- anti-ApoH, anti-ds DNA and anti-phosphatidyl-ethanolamine levels [5]: significant effect of FTS treatment
- levels of autoantibodies to phospholipids and single stranded DNA (minor antibodies) [6]: did not lower significantly
- levels of anti-ApoH autoantibodies [6, 12]: Significantly lower levels
- levels of anti-double stranded DNA (dsDNA) autoantibodies [6, 12]: Significantly lower levels
- toxicity [7]: no significant toxicity
- grip strength (hang time on a horizontal bar) ([8]; MRL/++ mice): trend for FTS to impair performance
- grip strength (hang time on a horizontal bar) ([8]; MRL/lpr mice, 12-17 weeks of age): significantly impaired in this test from week 14 compared to the FTS-treated group; also recorded: normalized
- proteinuria [9]: very low levels of proteinuria; also recorded: normalized
- lymphadenopathy and lymphocyte proliferation ([10]; MRL/lpr mice): normalized
- weakness as measured by grip strength on a horizontal bar ([10]; MRL/lpr mice): normalized by FTS treatment
- proteinuria (dip-sticks, FIG. 15) ([10]; MRL/lpr mice treated daily): did not develop significant proteinuria
- solubility in water / saline [11]: insoluble in water
